Structures can show the parent of a compound that is named as a salt. Where two headings read alike, the source gives them in different places.
Assays:
Assay in all cases: AK assay 384-well format, Prestwick library screening
E. coli = assay type: cell-based, Escherichia coli; details: 50 μM final drug concentration; for fold induction at 50 µM: Escherichia coli, 3 h
[1] = tested on: S. aureus strain USA300-0114; assay type: cell-based, Staphylococcus aureus; details: 50 μM final drug concentration; for fold induction at 50 µM: Staphylococcus aureus, USA300, 3 h
E. faecium = assay type: cell-based, Enterococcus faecium; details: 50 μM final drug concentration; for fold induction at 50 µM: Enterococcus faecium, 3 h
E. cloacae = assay type: cell-based, Enterobacter cloacae; details: 50 μM final drug concentration; for fold induction at 50 µM: Enterobacter cloacae, 3 h
[2] = tested on: A. baumannii strain 98-37-09; assay type: cell-based, Acinetobacter baumannii; details: 50 μM final drug concentration; for fold induction at 50 µM: Acinetobacter baumannii, 983709, 3 h
P. aeruginosa = assay type: cell-based, Pseudomonas aeruginosa; details: 50 μM final drug concentration; for fold induction at 50 µM: Pseudomonas aeruginosa, 3 h
K. pneumoniae = assay type: cell-based, Klebsiella pneumoniae; details: 50 μM final drug concentration; for fold induction at 50 µM: Klebsiella pneumoniae, 3 h
[3] = planktonic E. coli, 384-well, cutoff for positive-scoring molecules 3-fold increase, read-out: AK-based Prestwick Library Screening Results: E. coli (increase in extracellular AK activity)
[4] = planktonic S. aureus, 384-well, cutoff for positive-scoring molecules 3-fold increase, read-out: AK-based Prestwick Library Screening Results: S. aureus (increase in extracellular AK activity)
[5] = planktonic E. faecium, 384-well, cutoff for positive-scoring molecules 3-fold increase, read-out: AK-based Prestwick Library Screening Results: E. faecium (increase in extracellular AK activity)
[6] = planktonic E. cloacae, 384-well, cutoff for positive-scoring molecules 3-fold increase, read-out: AK-based Prestwick Library Screening Results: E. cloacae (increase in extracellular AK activity)
[7] = planktonic A. baumannii, 384-well, cutoff for positive-scoring molecules 3-fold increase, read-out: AK-based Prestwick Library Screening Results: A. baumannii (increase in extracellular AK activity)
[8] = planktonic P. aeruginosa, 384-well, cutoff for positive-scoring molecules 3-fold increase, read-out: AK-based Prestwick Library Screening Results: P. aeruginosa (increase in extracellular AK activity)
[9] = planktonic K. pneumoniae, 384-well, cutoff for positive-scoring molecules 3-fold increase, read-out: AK-based Prestwick Library Screening Results: K. pneumoniae (increase in extracellular AK activity)
[10] = planktonic, cutoff for positive-scoring molecules 3-fold increase, read-out: AK-based Prestwick Library Screening Results, E. coli (fold increase in extracellular AK activity)
[11] = planktonic, cutoff for positive-scoring molecules 3-fold increase, read-out: AK-based Prestwick Library Screening Results, S. aureus (fold increase in extracellular AK activity)
[12] = planktonic, cutoff for positive-scoring molecules 3-fold increase, read-out: AK-based Prestwick Library Screening Results, E. faecium (fold increase in extracellular AK activity)
[13] = planktonic, cutoff for positive-scoring molecules 3-fold increase, read-out: AK-based Prestwick Library Screening Results, E. cloacae (fold increase in extracellular AK activity)
[14] = planktonic, cutoff for positive-scoring molecules 3-fold increase, read-out: AK-based Prestwick Library Screening Results, A. baumannii (fold increase in extracellular AK activity)
[15] = planktonic, cutoff for positive-scoring molecules 3-fold increase, read-out: AK-based Prestwick Library Screening Results, P. aeruginosa (fold increase in extracellular AK activity)
[16] = planktonic, cutoff for positive-scoring molecules 3-fold increase, read-out: AK-based Prestwick Library Screening Results, K. pneumoniae (fold increase in extracellular AK activity)
[17] = cutoff for positive-scoring molecules 3-fold increase, read-out: AK-based Prestwick Library Screening Results, E. coli (fold increase in extracellular AK activity)
[18] = cutoff for positive-scoring molecules 3-fold increase, read-out: AK-based Prestwick Library Screening Results, S. aureus (fold increase in extracellular AK activity)
[19] = cutoff for positive-scoring molecules 3-fold increase, read-out: AK-based Prestwick Library Screening Results, E. faecium (fold increase in extracellular AK activity)
[20] = cutoff for positive-scoring molecules 3-fold increase, read-out: AK-based Prestwick Library Screening Results, E. cloacae (fold increase in extracellular AK activity)
[21] = cutoff for positive-scoring molecules 3-fold increase, read-out: AK-based Prestwick Library Screening Results, A. baumannii (fold increase in extracellular AK activity)
[22] = cutoff for positive-scoring molecules 3-fold increase, read-out: AK-based Prestwick Library Screening Results, P. aeruginosa (fold increase in extracellular AK activity)
[23] = cutoff for positive-scoring molecules 3-fold increase, read-out: AK-based Prestwick Library Screening Results, K. pneumoniae (fold increase in extracellular AK activity)
[24] = 384-well format, cutoff for positive-scoring molecules 3-fold increase

COC(=O)Nc1nc2ccc(C(=O)c3ccccc3)cc2[nH]1 [Mebendazole]
fold induction at 50 µM (E. coli; [3]): 0.8 | fold induction at 50 µM [1, 4]: 0.9 | fold induction at 50 µM (E. faecium; [5]): 0.9 | fold induction at 50 µM (E. cloacae; [6]): 1.2 | fold induction at 50 µM [2, 7]: 0.7 | fold induction at 50 µM (P. aeruginosa; [8]): 0.8 | fold induction at 50 µM (K. pneumoniae; [9]): 0.8

CC(=O)/N=c1/sc(S(N)(=O)=O)nn1C [Methazolamide]
fold induction at 50 µM (E. coli; [10]): 0.5 | fold induction at 50 µM [1, 11]: 0.6 | fold induction at 50 µM (E. faecium; [12]): 1.5 | fold induction at 50 µM (E. cloacae; [13]): 0.7 | fold induction at 50 µM [2, 14]: 0.5 | fold induction at 50 µM (P. aeruginosa; [15]): 0.6 | fold induction at 50 µM (K. pneumoniae; [16]): 0.5

O=C(OCC(O)CO)c1ccccc1Nc1ccnc2cc(Cl)ccc12 (centres unmarked) [Glafenine hydrochloride]
fold induction at 50 µM (E. coli; planktonic E. coli, 384-well, […], read-out: AK-based Prestwick Library Screening Results: E. coli (increase in extracellular AK activity)): 1.2 | fold induction at 50 µM ([1]; planktonic S. aureus, 384-well, […], read-out: AK-based Prestwick Library Screening Results: S. aureus (increase in extracellular AK activity)): 1.1 | fold induction at 50 µM (E. faecium; planktonic E. faecium, 384-well, […], read-out: AK-based Prestwick Library Screening Results: E. faecium (increase in extracellular AK activity)): 1.1 | fold induction at 50 µM (E. cloacae; planktonic E. cloacae, 384-well, […], read-out: AK-based Prestwick Library Screening Results: E. cloacae (increase in extracellular AK activity)): 1.5 | fold induction at 50 µM ([2]; planktonic A. baumannii, 384-well, […], read-out: AK-based Prestwick Library Screening Results: A. baumannii (increase in extracellular AK activity)): 1.1 | fold induction at 50 µM (P. aeruginosa; planktonic P. aeruginosa, 384-well, […], read-out: AK-based Prestwick Library Screening Results: P. aeruginosa (increase in extracellular AK activity)): 1.2 | fold induction at 50 µM (K. pneumoniae; planktonic K. pneumoniae, 384-well, […], read-out: AK-based Prestwick Library Screening Results: K. pneumoniae (increase in extracellular AK activity)): 1

COc1cc2nc(N(C)CCCNC(=O)C3CCCO3)nc(N)c2cc1OC (centres unmarked) [Alfuzosin hydrochloride]
fold induction at 50 µM (E. coli; [3]): 0.5 | fold induction at 50 µM [1, 4]: 0.3 | fold induction at 50 µM (E. faecium; [5]): 0.9 | fold induction at 50 µM (E. cloacae; [6]): 0.4 | fold induction at 50 µM [2, 7]: 0.4 | fold induction at 50 µM (P. aeruginosa; [8]): 0.4 | fold induction at 50 µM (K. pneumoniae; [9]): 0.4

CCOc1ccc(Cc2nccc3cc(OCC)c(OCC)cc23)cc1OCC [Ethaverine hydrochloride]
fold induction at 50 µM (E. coli; [10]): 0.9 | fold induction at 50 µM [1, 11]: 0.5 | fold induction at 50 µM (E. faecium; [12]): 1 | fold induction at 50 µM (E. cloacae; [13]): 1 | fold induction at 50 µM [2, 14]: 0.9 | fold induction at 50 µM (P. aeruginosa; [15]): 0.9 | fold induction at 50 µM (K. pneumoniae; [16]): 0.7

CC(=O)OCC1=C(C(=O)O)N2C(=O)[C@@H](NC(=O)Cc3cccs3)[C@H]2SC1 [Cephalothin sodium salt]
fold induction at 50 µM (E. coli; [17]): 11.8 | fold induction at 50 µM [1, 18]: 5.3 | fold induction at 50 µM (E. faecium; [19]): 1 | fold induction at 50 µM (E. cloacae; [20]): 2 | fold induction at 50 µM [2, 21]: 1.1 | fold induction at 50 µM (P. aeruginosa; [22]): 1.1 | fold induction at 50 µM (K. pneumoniae; [23]): 3.2

CN(C)C(=O)Oc1cccc([N+](C)(C)C)c1 [Neostigmine bromide]
fold induction at 50 µM (E. coli; planktonic, […], read-out: AK-based Prestwick Library Screening Results, E. coli (fold increase in extracellular AK activity)): 1.3 | fold induction at 50 µM ([1]; planktonic, […], read-out: AK-based Prestwick Library Screening Results, S. aureus (fold increase in extracellular AK activity)): 1.2 | fold induction at 50 µM (E. faecium; planktonic, […], read-out: AK-based Prestwick Library Screening Results, E. faecium (fold increase in extracellular AK activity)): 1 | fold induction at 50 µM (E. cloacae; planktonic, […], read-out: AK-based Prestwick Library Screening Results, E. cloacae (fold increase in extracellular AK activity)): 1.2 | fold induction at 50 µM ([2]; planktonic, […], read-out: AK-based Prestwick Library Screening Results, A. baumannii (fold increase in extracellular AK activity)): 1.3 | fold induction at 50 µM (P. aeruginosa; planktonic, […], read-out: AK-based Prestwick Library Screening Results, P. aeruginosa (fold increase in extracellular AK activity)): 1.1 | fold induction at 50 µM (K. pneumoniae; planktonic, […], read-out: AK-based Prestwick Library Screening Results, K. pneumoniae (fold increase in extracellular AK activity)): 1

O=C(NCC(O)CO)c1c(I)c(C(=O)NCC(O)CO)c(I)c(N(CCO)C(=O)CO)c1I (centres unmarked) [Ioversol]
fold induction at 50 µM (E. coli; [17]): 1.2 | fold induction at 50 µM [1, 18]: 1.2 | fold induction at 50 µM (E. faecium; [19]): 1 | fold induction at 50 µM (E. cloacae; [20]): 1.4 | fold induction at 50 µM [2, 21]: 1.3 | fold induction at 50 µM (P. aeruginosa; [22]): 1.2 | fold induction at 50 µM (K. pneumoniae; [23]): 1.2

CN(C(=O)CN(CCO)CC(=O)N(C)C(C)(C)Cc1ccccc1)C(C)(C)Cc1ccccc1 [Oxethazaine]
fold induction at 50 µM (E. coli; [3]): 1.4 | fold induction at 50 µM [1, 4]: 1 | fold induction at 50 µM (E. faecium; [5]): 1 | fold induction at 50 µM (E. cloacae; [6]): 1.5 | fold induction at 50 µM [2, 7]: 4.2 | fold induction at 50 µM (P. aeruginosa; [8]): 1 | fold induction at 50 µM (K. pneumoniae; [9]): 1.5

c1ccc2c(c1)OCC(C1=NCCN1)O2 (centres unmarked) [Idazoxan hydrochloride]
fold induction at 50 µM (E. coli; [17]): 1.1 | fold induction at 50 µM [1, 18]: 1.1 | fold induction at 50 µM (E. faecium; [19]): 1 | fold induction at 50 µM (E. cloacae; [20]): 1.5 | fold induction at 50 µM [2, 21]: 1.1 | fold induction at 50 µM (P. aeruginosa; [22]): 1.2 | fold induction at 50 µM (K. pneumoniae; [23]): 1

Cc1c(O)c(=O)n(-c2ccccc2)n1C [Antipyrine, 4-hydroxy]
AK-based Prestwick Library Screening Results, E. coli (increase in extracellular AK activity) (E. coli; [24]): 0.9 | AK-based Prestwick Library Screening Results, S. aureus (increase in extracellular AK activity) [1, 24]: 0.7 | AK-based Prestwick Library Screening Results, E. faecium (increase in extracellular AK activity) (E. faecium; [24]): 1.0 | AK-based Prestwick Library Screening Results, E. cloacae (increase in extracellular AK activity) (E. cloacae; [24]): 1.0 | AK-based Prestwick Library Screening Results, A. baumannii (increase in extracellular AK activity) [2, 24]: 0.8 | AK-based Prestwick Library Screening Results, P. aeruginosa (increase in extracellular AK activity) (P. aeruginosa; [24]): 0.8 | AK-based Prestwick Library Screening Results, K. pneumoniae (increase in extracellular AK activity) (K. pneumoniae; [24]): 0.7

Reference: US10004701B2, “Methods and compositions for treating infection” (UNIVERSITY OF ROCHESTER, priority 2012, dated 2018)
